Results from BindingDB's records for doi:10.1016/j.ejmech.2018.08.085 (China Pharmaceutical University, 2018).

test: Binding affinity to VDR in scrambled siRNA-transfected human MCF7 cells assessed as cell growth inhibition by measuring reduction in BrdU incorporation after 16 hrs by ELISA

| IC50 [nM] | SMILES |
| --- | --- |
| 4300 | CCn1c(C(=O)N[C@@H](C)CO)ccc1C(CC)(CC)c1ccc(OCC(O)C(C)(C)C)c(C)c1 (stereo partly drawn) |
| 970 | CCN(CC)CCNC(=O)c1ccc(C(CC)(CC)c2ccc(OCSC)c(C)c2)n1CC |
| 650 | CCN(CC)CCNC(=O)c1cc(C(CC)(CC)c2ccc(OCS(=O)(=O)c3ccccc3)c(C)c2)cn1CC |
